From patent US20050004163A1, “3-(diarylmethylene)-8-azabicyclo[3.2.1]octane derivatives” (priority 2000, published 2005)
pKi: −log10 of the molar value.

biological target: T1, μ-opioid receptor (Rattus norvegicus, UniProt P33535); assay: Rat brain μ-opioid receptor binding assay ([3H]DAMGO); details: 10 nM solutions of the compounds, read-out: MOR binding Ki
T1 construct: the forebrains are homogenized in Tris buffer in a Teflon®-glass homogenizer; from tissue; host or cells: forebrain of male Wistar rats (particulate membrane preparation)
Experimental: Rat Brain μ-Opioid Receptor Binding Assay
Male, Wistar rats (150-250 g, VAF, Charles River, Kingston, N.Y.) are killed by cervical dislocation and their brains removed and placed immediately in ice cold Tris HCl buffer (50 mM, pH 7.4). The forebrains are separated from the remainder of the brain by a coronal transection, beginning dorsally at the colliculi and passing ventrally through the midbrain-pontine junction. After dissection, the forebrains are homogenized in Tris buffer in a Teflon®-glass homogenizer. The homogenate is diluted to a concentration of 1 g of forebrain tissue per 100 mL Tris buffer and centrifuged at 39,000×G for 10 min. The pellet is resuspended in the same volume of Tris buffer with several brief pulses from a Polytron homogenizer. This particulate preparation is used for the μ-opioid binding assays. […] The tubes and filters are rinsed three times with 4 mL of 10 mM HEPES (pH 7.4) and the radioactivity associated with the filter circles determined using Formula 989 scintillation fluid (New England Nuclear, Boston, Mass.) in a scintillation counter.
The data are used to calculate either the % inhibition compared to control binding (when only a single concentration of test compound is evaluated) or a Ki value (when a range of concentrations is tested).
% Inhibition is calculated as follows: [formula]
Ki value is calculated using the LIGAND (Munson, P. J. and Rodbard, D., Anal. Biochem. 107: 220-239, 1980) data analysis program.

T1 sequence (P33535 whole entry): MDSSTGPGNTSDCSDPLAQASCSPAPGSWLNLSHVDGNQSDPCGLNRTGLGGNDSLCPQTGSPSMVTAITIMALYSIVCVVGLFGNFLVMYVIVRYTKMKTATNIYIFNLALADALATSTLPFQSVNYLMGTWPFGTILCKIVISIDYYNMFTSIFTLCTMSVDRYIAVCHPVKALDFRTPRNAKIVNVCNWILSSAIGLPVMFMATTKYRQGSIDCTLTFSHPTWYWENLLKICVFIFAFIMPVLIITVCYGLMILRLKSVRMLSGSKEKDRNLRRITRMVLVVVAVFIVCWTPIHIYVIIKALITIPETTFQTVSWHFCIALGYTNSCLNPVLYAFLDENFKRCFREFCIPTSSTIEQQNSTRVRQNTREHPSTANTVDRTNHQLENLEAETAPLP

`CCNC(=O)c1ccc(C(Br)=C2CC3CCC(C2)N3Cc2c[nH]cn2)cc1` [Cpd 39] and `CCNC(=O)c1ccc(C(Br)=C2CC3CCC(C2)N3Cc2ccc3ccccc3n2)cc1` [Cpd 25] are within 0.2 log units of each other in pKi: 7.08 for the first, 7.02 for the second.

First: CCNC(=O)c1ccc(C=C2CC3CCC(C2)N3CCc2ccccc2O)cc1 [Cpd 86]
Second: CCCCN1C2CCC1CC(=Cc1ccc(C(=O)NCC)cc1)C2 [Cpd 53]
The pKi of the first is 1.14 log units higher: 7.72 for the first, 6.58 for the second.

First: CCNC(=O)c1ccc(C=C2CC3CCC(C2)N3Cc2ccncc2)cc1 [Cpd 58]
Second: CCNC(=O)c1ccc(C=C2CC3CCC(C2)N3Cc2ccoc2)cc1 [Cpd 36]
The pKi of the first is 1.03 log units lower: 5.93 for the first, 6.96 for the second. The second binds more tightly here.

`CCNC(=O)c1ccc(C=C2CC3CCC(C2)N3Cc2ncc[nH]2)cc1` [Cpd 32] and `CCNC(=O)c1ccc(C=C2CC3CCC(C2)N3Cc2ccc(Cl)s2)cc1` [Cpd 77] are within 0.2 log units of each other in pKi: 6.41 for the first, 6.45 for the second.

First: CCNC(=O)c1ccc(C(=C2CC3CCC(C2)N3Cc2ccoc2)c2ccc([N+](=O)[O-])cc2)cc1 [Cpd 126]
Second: CCNC(=O)c1ccc(C(=C2CC3CCC(C2)N3Cc2nccs2)c2ccc(C(N)=O)cc2)cc1 [Cpd 188]
The pKi of the first is 2.53 log units higher: 8.84 for the first, 6.31 for the second.

`CCNC(=O)c1ccc(C(=C2CC3CCC(C2)N3CC=C(C)C)c2nnn[nH]2)cc1` [Cpd 147] and `CCNC(=O)c1ccc(C(=C2CC3CCC(C2)N3Cc2ccsc2)c2cnc3ccccc3c2)cc1` [Cpd 15] are within 0.2 log units of each other in pKi: 6.96 for the first, 6.90 for the second.

`CCNC(=O)c1ccc(C(=C2CC3CCC(C2)N3Cc2ccsc2)c2ccc3c(c2)OCO3)cc1` [Cpd 7] was tested, and the pKi was 8.52.

same assay, conditions: MOR binding Ki

First: CCNC(=O)c1ccc(C(=C2CC3CCC(C2)N3Cc2cccs2)c2ccc(S(N)(=O)=O)cc2)cc1 [Cpd 141]
Second: CCNC(=O)c1ccc(C(=C2CC3CCC(C2)N3Cc2ccsc2)c2ccc(C(N)=O)cc2)cc1 [Cpd 191]
The pKi of the first is 1.33 log units higher: 8.98 for the first, 7.65 for the second.

Going from `CCNC(=O)c1ccc(C(=C2CC3CCC(C2)N3Cc2cccs2)c2cccc3cccnc23)cc1` [Cpd 68] to `CCNC(=O)c1ccc(C(=C2CC3CCC(C2)N3Cc2cccs2)c2cnc3ccccc3c2)cc1` [Cpd 64], the pKi rises from 6.81 to 7.51 (0.70 log units). The second binds more tightly here.

First: CCNC(=O)c1ccc(C(=C2CC3CCC(C2)N3Cc2ccco2)c2cccc(C(=O)O)c2)cc1 [Cpd 80, 3-[(4-Ethylcarbamoyl-phenyl)-(8-furan-2-ylmethyl-8-aza-bicyclo[3.2.1]oct-3-ylidene)-methyl]-benzoic acid]
Second: CCNC(=O)c1ccc(C(=C2CC3CCC(C2)N3Cc2ccco2)c2cccc(CO)c2)cc1 [Cpd 179]
The pKi of the first is 1.14 log units lower: 6.93 for the first, 8.07 for the second. The second binds more tightly here.

Compared with `CCNC(=O)c1ccc(C=C2CC3CCC(C2)N3Cc2[nH]cnc2C)cc1` [Cpd 37], `CCNC(=O)c1ccc(C=C2CC3CCC(C2)N3CC=C(C)C)cc1` [Cpd 55] is 0.88 log units higher in pKi: 5.83 for the first, 6.71 for the second. The second binds more tightly here.

Going from `CCNC(=O)c1ccc(C(=C2CC3CCC(C2)N3)c2nnn[nH]2)cc1` (single isomer, unassigned) [Cpd 201] to `CCNC(=O)c1ccc(C(Br)=C2C[C@H]3CC[C@@H](C2)N3)cc1` (single isomer, unassigned) [Cpd 92], the pKi rises from 4.91 to 6.94 (2.03 log units). The second binds more tightly here.

First: CCNC(=O)c1ccc(C(=C2CC3CCC(C2)N3Cc2ccsc2)c2cccc(C(=O)O)c2)cc1 [Cpd 175]
Second: CCNC(=O)c1ccc(C(=C2CC3CCC(C2)N3Cc2ccsc2)c2ccc(C(=O)O)cc2)cc1 [Cpd 176]
The pKi of the first is 0.51 log units lower: 7.46 for the first, 7.97 for the second. The second binds more tightly here.

Going from `CCNC(=O)c1ccc(C(=C2C[C@H]3CC[C@@H](C2)N3C(=O)Cc2ccccc2)c2cccnc2)cc1` (single isomer, unassigned) [Cpd 217] to `CCNC(=O)c1ccc(C(=C2CC3CCC(C2)N3C(=O)Cc2ccccc2)c2cccnc2)cc1` [Cpd 200, N-Ethyl-4-[(8-phenylacetyl-8-aza-bicyclo[3.2.1]oct-3-ylidene)-pyridin-3-yl-methyl]-benzamide], the pKi falls from 8.51 to 7.88 (0.63 log units). The first binds more tightly here.

Compared with `CCNC(=O)c1ccc(C(=C2CC3CCC(C2)N3Cc2cccs2)c2cccc(-c3nnn[nH]3)c2)cc1` [Cpd 168], `CCNC(=O)c1ccc(C(=C2CC3CCC(C2)N3Cc2ccsc2)c2cccc(-c3nnn[nH]3)c2)cc1` [Cpd 169] is 1.45 log units higher in pKi: 6.40 for the first, 7.85 for the second.

First: CCNC(=O)c1ccc(C(=C2CC3CCC(C2)N3Cc2ccc(NC(C)=O)cc2)c2cccc(C(=O)O)c2)cc1 [Cpd 84]
Second: CCNC(=O)c1ccc(C(=C2CC3CCC(C2)N3Cc2ccc(NC(C)=O)cc2)c2ccc3c(c2)OCO3)cc1 [Cpd 5]
The pKi of the first is 1.89 log units lower: 5.25 for the first, 7.14 for the second.

Compared with `CCNC(=O)c1ccc(C(=C2CC3CCC(C2)N3CCN2CCN(C(=O)OC)CC2)c2ccccc2)cc1` [Cpd 91, 4-(2-{3-[(4-Ethylcarbamoylphenyl)-phenylmethylene]-8-azabicyclo[3.2.1]oct-8-yl}-ethyl)piperazine-1-carboxylic acid methyl ester], `CCNC(=O)c1ccc(C(=C2CC3CCC(C2)N3CC#N)c2ccccc2)cc1` [Cpd 43, 4-[(8-Cyanomethyl-8-aza-bicyclo[3.2.1]oct-3-ylidene)-phenyl-methyl]-N-ethyl-benzamide] is 0.62 log units lower in pKi: 6.76 for the first, 6.14 for the second.

Going from `CCNC(=O)c1ccc(C(=C2CC3CCC(C2)N3Cc2ccco2)c2cc(N)cc(C(=O)O)c2)cc1` [Cpd 108] to `CCNC(=O)c1ccc(C(=C2CC3CCC(C2)N3Cc2ccco2)c2ccc(C(N)=O)cc2)cc1` [Cpd 180], the pKi rises from 5.00 to 8.00 (3.00 log units).

Compared with `CCNC(=O)c1ccc(C(=C2CC3CCC(C2)N3Cc2nccs2)c2ccc(CCC(=O)O)cc2)cc1` [Cpd 132], `CCNC(=O)c1ccc(C(=C2CC3CCC(C2)N3Cc2nccs2)c2ccc(CO)cc2)cc1` [Cpd 195] is 0.40 log units higher in pKi: 6.79 for the first, 7.19 for the second. The second binds more tightly here.

First: CCNC(=O)c1ccc(C(C#N)=C2CC3CCC(C2)N3)cc1 [Cpd 145]
Second: CCNC(=O)c1ccc(C(=C2CC3CCC(C2)N3)c2nnn[nH]2)cc1 (single isomer, unassigned) [Cpd 202]
The pKi of the first is 0.93 log units higher: 6.02 for the first, 5.09 for the second.

First: CNC(=O)c1ccc(C=C2CC3CCC(C2)N3CC2CC2)cc1 [Cpd 105]
Second: CCNC(=O)c1ccc(C(C#N)=C2CC3CCC(C2)N3Cc2ccoc2)cc1 [Cpd 143]
The pKi of the first is 3.74 log units lower: 5.25 for the first, 8.99 for the second. The second binds more tightly here.

First: CCNC(=O)c1ccc(C(=C2CC3CCC(C2)N3Cc2cccc(C(=O)O)c2)c2ccccc2)cc1 [Cpd 93]
Second: CCNC(=O)c1ccc(C(=C2CC3CCC(C2)N3Cc2ccoc2)c2ccc(C(=O)O)cc2)cc1 [Cpd 97]
The pKi of the first is 1.38 log units lower: 6.55 for the first, 7.93 for the second. The second binds more tightly here.

`CCNC(=O)c1ccc(C(=C2CC3CCC(C2)N3CCc2ccccc2)c2cccc(-c3nnn[nH]3)c2)cc1` [Cpd 166] and `CCNC(=O)c1ccc(C(=C2CC3CCC(C2)N3CCc2ccccc2)c2nnn[nH]2)cc1` [Cpd 149] are within 0.2 log units of each other in pKi: 7.30 for the first, 7.20 for the second.

First: CCNC(=O)c1ccc(C(=C2CC3CCC(C2)N3CC=C(C)C)c2cccc3cccnc23)cc1 [Cpd 67]
Second: CCNC(=O)c1ccc(C(=C2CC3CCC(C2)N3CC=C(C)C)c2cc(C(=O)O)cc([N+](=O)[O-])c2)cc1 [Cpd 155]
The pKi of the first is 0.20 log units lower: 6.93 for the first, 7.13 for the second.

Going from `CCNC(=O)c1ccc(C(=C2CC3CCC(C2)N3Cc2nccs2)c2cccc(CN)c2)cc1` [Cpd 160] to `CCNC(=O)c1ccc(C(=C2CC3CCC(C2)N3Cc2ccoc2)c2cccc(CO)c2)cc1` [Cpd 178], the pKi rises from 5.14 to 9.09 (3.95 log units). The second binds more tightly here.

Compared with `CCNC(=O)c1ccc(C(=C2CC3CCC(C2)N3Cc2nccs2)c2nnn[nH]2)cc1` [Cpd 150], `CCNC(=O)c1ccc(C(=C2CC3CCC(C2)N3Cc2ccco2)c2nnn[nH]2)cc1` (single isomer, unassigned) [Cpd 203] is 1.87 log units lower in pKi: 7.13 for the first, 5.26 for the second. The first binds more tightly here.

Going from `CCNC(=O)c1ccc(C(=C2CC3CCC(C2)N3Cc2ccc3ccccc3n2)c2ccc(C(=O)O)cc2)cc1` [Cpd 100] to `CCNC(=O)c1ccc(C(=C2CC3CCC(C2)N3Cc2ccc3ccccc3n2)c2cnccn2)cc1` [Cpd 30], the pKi rises from 6.83 to 7.82 (0.99 log units).

Compared with `CCNC(=O)c1ccc(C(=C2CC3CCC(C2)N3Cc2sccc2C)c2ccc3c(c2)OCO3)cc1` [Cpd 12], `CCNC(=O)c1ccc(C(=C2CC3CCC(C2)N3Cc2ncc[nH]2)c2ccc3c(c2)OCO3)cc1` [Cpd 6] is 0.56 log units higher in pKi: 6.89 for the first, 7.45 for the second. The second binds more tightly here.

Compared with `CCNC(=O)c1ccc(C(C#N)=C2CC3CCC(C2)N3Cc2ccoc2)cc1` (single isomer, unassigned) [Cpd 209], `CCNC(=O)c1ccc(C(=C2CC3CCC(C2)N3Cc2ccsc2)c2ccc(CO)cc2)cc1` [Cpd 205] is 0.83 log units lower in pKi: 8.59 for the first, 7.76 for the second. The first binds more tightly here.

Going from `CCNC(=O)c1ccc(C(=C2CC3CCC(C2)N3Cc2ccccn2)c2cnc3ccccc3c2)cc1` [Cpd 66] to `CCNC(=O)c1ccc(C(=C2CC3CCC(C2)N3Cc2ccsc2)c2cccc(-c3nnn[nH]3)c2)cc1` (single isomer, unassigned) [Cpd 216], the pKi rises from 6.85 to 7.92 (1.07 log units).

Going from `CCNC(=O)c1ccc(C(=C2CC3CCC(C2)N3C(=O)c2cccs2)c2cccnc2)cc1` [Cpd 208, N-Ethyl-4-{pyridin-3-yl-[8-(thiophene-2-carbonyl)-8-aza-bicyclo[3.2.1]oct-3-ylidene]-methyl}-benzamide] to `CCNC(=O)c1ccc(C(=C2CC3CCC(C2)N3Cc2ccsc2)c2ccc(CCC(=O)O)cc2)cc1` [Cpd 129], the pKi rises from 7.21 to 8.17 (0.96 log units). The second binds more tightly here.

Compared with `CCNC(=O)c1ccc(C(=C2CC3CCC(C2)N3CCc2ccccc2)c2ccc(NS(C)(=O)=O)cc2)cc1` [Cpd 185], `CCN(CC)C(=O)c1ccc(C(=C2CC3CCC(C2)N3C#N)c2ccccc2)cc1` [Cpd 197, 4-[(8-cyano-8-aza-bicyclo[3.2.1]oct-3-ylidene)-phenyl-methyl]-N,N-diethylbenzamide] is 2.23 log units lower in pKi: 7.23 for the first, 5.00 for the second.

In the case of `CCNC(=O)c1ccc(C(=C2CC3CCC(C2)N3Cc2nccs2)c2cc(C(=O)O)cc([N+](=O)[O-])c2)cc1` [Cpd 159], the pKi was 7.87.
